Paper PMC6155387, “Alkoxy and Enediyne Derivatives Containing 1,4-Benzoquinone Subunits—Synthesis and Antitumor Activity” (Molecules : A Journal of Synthetic Chemistry and Natural …, 2017)

System: C-32
Assay: antiproliferative activity (WST-1), melanoma C-32
Format: cell-based, human
Details: Homo sapiens, C32; melanoma C-32, 72 h, WST-1; Neg: negative in the concentration used; read-out: IC50 ± SD C-32
Method: (§1) Biological activity of the tested compounds was assessed in vitro using cultured cell lines: melanoma C-32 (ATCC, Rockville, MD, USA), glioblastoma SNB-19 (DSMZ, Braunschweig, Germany), breast cancer MDA-MB-231 (ATCC, Rockville, MD, USA), and normal human fibroblasts derived from foreskin HFF-1 (ATCC, Rockville, MD, USA). Cell cultures were maintained using DMEM (Lonza, Basel, Switzerland) supplemented with 10% fetal bovine serum (FBS) (Biological Industries Cromwell, CT, USA) and a mixture of penicillin (10,000 U/mL) and streptomycin (10 mg/mL) (Lonza, Basel, Switzerland).
(§2) Cells were cultured using 96-well plates (Nunc Thermo Fisher Scientific, Waltham, MA, USA). Cells were seeded (5 × 10^3 cells/well) and incubated for 24 h in a standard incubator (37 °C, 5% CO2, relative humidity 95%). Subsequently, the medium was replaced with a fresh aliquot containing an examined compound (0.01; 0.05; 0.1; 0.5; 1; 5; 10; 50; 100 µg/mL), and cells were further incubated for another 72 h. Upon the conclusion of incubation, a CVDE test (Aniara, West Chester, OH, USA) using crystal violet was performed to assess the relative number of cells in the culture. A WST-1 test (Roche) was performed to examine the metabolic activity of cells and test for the presence of LDH in the medium (Roche Diagnostics GmbH, Mannheim, Germany), allowing for the assessment of the relative number of dead cells (i.e., cytotoxicity of the examined compound). UVM340 microplate readers (BIOGENET, Józefów, Poland) were used to read absorbance values.
(§3) WST-1 colorimetric assay for cell proliferation (Roche Diagnostics GmbH, Mannheim, Germany, reagent kit cat. 11644807001) is based on the viable cells’ ability to cleave the bright red-colored stable tetrazolium salt WST-1 to dark red soluble formazan. This bioreduction occurs under the influence of mitochondrial dehydrogenases (depends mostly on production of NAD(P)H in viable cells). The amount of formazan dye formed correlates directly with the number of metabolically active cells in the culture and is measured by absorbance (λ = 450 nm) following 1 h incubation of cells with the reagent.

| Structure (SMILES) | IC50 |
| --- | --- |
| C#CCOC1=C(Cl)C(=O)c2ccc(C)nc2C1=O [Compound 12, 6-Chloro-2-methyl-7-(2-propynoxy)-5,8-quinolinedione] | 208 ± 4.6 µM |
| CCCOC1=C(OCCC)C(=O)c2ccccc2C1=O [Compound 13, 2,3-Dipropoxy-1,4-naphtoquinon] | 22.6 ± 0.8 µM |
| C=CCOC1=C(OCC=C)C(=O)c2ccccc2C1=O [Compound 14, 2,3-di(2-Propenoxy)-1,4-naphthoquinon] | 10.6 ± 0.6 µM |
| C#CCOC1=C(OCC#C)C(=O)c2ccccc2C1=O [Compound 15, 2,3-di(2-Propynoxy)-1,4-naphthoquinon] | 21.7 ± 0.6 µM |
| CCCOC1=C(OCCC)C(=O)c2nc(C)ccc2C1=O [Compound 19, 2-Methyl-6,7-dipropoxy-5,8-quinolinedione] | 131 ± 2.4 µM |
| C=CCOC1=C(OCC=C)C(=O)c2nc(C)ccc2C1=O [Compound 20, 2-Methyl-6,7-di(2-propenoxy)-5,8-quinolinedione] | 18.9 ± 1.7 µM |
| C#CCOC1=C(OCC#C)C(=O)c2nc(C)ccc2C1=O [Compound 21, 2-Methyl-6,7-di(2-propynoxy)-5,8-qunolinedione] | 21.1 ± 1.2 µM |
| OCC#C/C=C\C#CCO [Compound 22, (Z)-oct-4-ene-2,6-diyne-1,8-diol] | 159 ± 4.6 µM |
| O=C1C(Cl)=C(OCC#CC=CC#CCO)C(=O)c2ccccc21 [Compound 23, 2-Chloro-3-(8-hydroxy-4-octen-2,6-diynyloxy)-1,4-naphthoquinon] | 145 ± 4.8 µM |

Same assay, conditions: selectivity index, HFF-1 vs C-32

| Structure (SMILES) | SI (IC50 HFF-1/IC50 cancer line) C-32 |
| --- | --- |
| C#CCOC1=C(Cl)C(=O)c2ccc(C)nc2C1=O [Compound 12, 6-Chloro-2-methyl-7-(2-propynoxy)-5,8-quinolinedione] | 0.07 |
| CCCOC1=C(OCCC)C(=O)c2ccccc2C1=O [Compound 13, 2,3-Dipropoxy-1,4-naphtoquinon] | 0.48 |
| C=CCOC1=C(OCC=C)C(=O)c2ccccc2C1=O [Compound 14, 2,3-di(2-Propenoxy)-1,4-naphthoquinon] | 0.42 |
| C#CCOC1=C(OCC#C)C(=O)c2ccccc2C1=O [Compound 15, 2,3-di(2-Propynoxy)-1,4-naphthoquinon] | 0.62 |
| CCCOC1=C(OCCC)C(=O)c2nc(C)ccc2C1=O [Compound 19, 2-Methyl-6,7-dipropoxy-5,8-quinolinedione] | 0.14 |
| C=CCOC1=C(OCC=C)C(=O)c2nc(C)ccc2C1=O [Compound 20, 2-Methyl-6,7-di(2-propenoxy)-5,8-quinolinedione] | 0.03 |
| C#CCOC1=C(OCC#C)C(=O)c2nc(C)ccc2C1=O [Compound 21, 2-Methyl-6,7-di(2-propynoxy)-5,8-qunolinedione] | 0.69 |
| OCC#C/C=C\C#CCO [Compound 22, (Z)-oct-4-ene-2,6-diyne-1,8-diol] | 1.64 |
| O=C1C(Cl)=C(OCC#CC=CC#CCO)C(=O)c2ccccc21 [Compound 23, 2-Chloro-3-(8-hydroxy-4-octen-2,6-diynyloxy)-1,4-naphthoquinon] | 0.67 |

System: SNB-19
Assay: antiproliferative activity (WST-1), glioblastoma SNB-19
Format: cell-based, human
Details: Homo sapiens; glioblastoma SNB-19, 72 h, WST-1; Neg: negative in the concentration used; read-out: IC50 ± SD SNB-19
Method: as §1, §2, §3

| Structure (SMILES) | IC50 |
| --- | --- |
| C#CCOC1=C(Cl)C(=O)c2ccc(C)nc2C1=O [Compound 12, 6-Chloro-2-methyl-7-(2-propynoxy)-5,8-quinolinedione] | 19.5 ± 1 µM |
| CCCOC1=C(OCCC)C(=O)c2ccccc2C1=O [Compound 13, 2,3-Dipropoxy-1,4-naphtoquinon] | 19.9 ± 1.4 µM |
| C=CCOC1=C(OCC=C)C(=O)c2ccccc2C1=O [Compound 14, 2,3-di(2-Propenoxy)-1,4-naphthoquinon] | 19.6 ± 1 µM |
| C#CCOC1=C(OCC#C)C(=O)c2ccccc2C1=O [Compound 15, 2,3-di(2-Propynoxy)-1,4-naphthoquinon] | 18.6 ± 0.7 µM |
| CCCOC1=C(OCCC)C(=O)c2nc(C)ccc2C1=O [Compound 19, 2-Methyl-6,7-dipropoxy-5,8-quinolinedione] | 25.7 ± 1.4 µM |
| C=CCOC1=C(OCC=C)C(=O)c2nc(C)ccc2C1=O [Compound 20, 2-Methyl-6,7-di(2-propenoxy)-5,8-quinolinedione] | 16.6 ± 3 µM |
| C#CCOC1=C(OCC#C)C(=O)c2nc(C)ccc2C1=O [Compound 21, 2-Methyl-6,7-di(2-propynoxy)-5,8-qunolinedione] | 24.5 ± 1.1 µM |
| OCC#C/C=C\C#CCO [Compound 22, (Z)-oct-4-ene-2,6-diyne-1,8-diol] | 250 ± 4.3 µM |
| O=C1C(Cl)=C(OCC#CC=CC#CCO)C(=O)c2ccccc21 [Compound 23, 2-Chloro-3-(8-hydroxy-4-octen-2,6-diynyloxy)-1,4-naphthoquinon] | 186 ± 5 µM |

Same assay, conditions: selectivity index, HFF-1 vs SNB-19

| Structure (SMILES) | SI (IC50 HFF-1/IC50 cancer line) SNB-19 |
| --- | --- |
| C#CCOC1=C(Cl)C(=O)c2ccc(C)nc2C1=O [Compound 12, 6-Chloro-2-methyl-7-(2-propynoxy)-5,8-quinolinedione] | 0.72 |
| CCCOC1=C(OCCC)C(=O)c2ccccc2C1=O [Compound 13, 2,3-Dipropoxy-1,4-naphtoquinon] | 0.54 |
| C=CCOC1=C(OCC=C)C(=O)c2ccccc2C1=O [Compound 14, 2,3-di(2-Propenoxy)-1,4-naphthoquinon] | 0.22 |
| C#CCOC1=C(OCC#C)C(=O)c2ccccc2C1=O [Compound 15, 2,3-di(2-Propynoxy)-1,4-naphthoquinon] | 0.73 |
| CCCOC1=C(OCCC)C(=O)c2nc(C)ccc2C1=O [Compound 19, 2-Methyl-6,7-dipropoxy-5,8-quinolinedione] | 0.69 |
| C=CCOC1=C(OCC=C)C(=O)c2nc(C)ccc2C1=O [Compound 20, 2-Methyl-6,7-di(2-propenoxy)-5,8-quinolinedione] | 0.04 |
| C#CCOC1=C(OCC#C)C(=O)c2nc(C)ccc2C1=O [Compound 21, 2-Methyl-6,7-di(2-propynoxy)-5,8-qunolinedione] | 0.59 |
| OCC#C/C=C\C#CCO [Compound 22, (Z)-oct-4-ene-2,6-diyne-1,8-diol] | 1.04 |
| O=C1C(Cl)=C(OCC#CC=CC#CCO)C(=O)c2ccccc21 [Compound 23, 2-Chloro-3-(8-hydroxy-4-octen-2,6-diynyloxy)-1,4-naphthoquinon] | 0.52 |

System: HFF-1
Assay: antiproliferative activity (WST-1), normal fibroblasts HFF-1
Format: cell-based, human
Details: Homo sapiens, normal fibroblasts HFF-1, 72 h, Neg: negative in the concentration used, read-out: IC50 ± SD HFF-1
Method: as §1, §2, §3

| Structure (SMILES) | IC50 |
| --- | --- |
| C#CCOC1=C(Cl)C(=O)c2ccc(C)nc2C1=O [Compound 12, 6-Chloro-2-methyl-7-(2-propynoxy)-5,8-quinolinedione] | 14 ± 2.4 µM |
| CCCOC1=C(OCCC)C(=O)c2ccccc2C1=O [Compound 13, 2,3-Dipropoxy-1,4-naphtoquinon] | 10.8 ± 0.5 µM |
| C=CCOC1=C(OCC=C)C(=O)c2ccccc2C1=O [Compound 14, 2,3-di(2-Propenoxy)-1,4-naphthoquinon] | 4.4 ± 0.9 µM |
| CCCOC1=C(OCCC)C(=O)c2nc(C)ccc2C1=O [Compound 19, 2-Methyl-6,7-dipropoxy-5,8-quinolinedione] | 17.8 ± 1.8 µM |
| C=CCOC1=C(OCC=C)C(=O)c2nc(C)ccc2C1=O [Compound 20, 2-Methyl-6,7-di(2-propenoxy)-5,8-quinolinedione] | 0.6 ± 0.2 µM |
| C#CCOC1=C(OCC#C)C(=O)c2nc(C)ccc2C1=O [Compound 21, 2-Methyl-6,7-di(2-propynoxy)-5,8-qunolinedione] | 14.5 ± 2.6 µM |
| OCC#C/C=C\C#CCO [Compound 22, (Z)-oct-4-ene-2,6-diyne-1,8-diol] | 260 ± 5.6 µM |
| O=C1C(Cl)=C(OCC#CC=CC#CCO)C(=O)c2ccccc21 [Compound 23, 2-Chloro-3-(8-hydroxy-4-octen-2,6-diynyloxy)-1,4-naphthoquinon] | 97.6 ± 4 µM |

System: MDA-MB-231
Assay: antiproliferative activity (WST-1), breast cancer MDA-MB-231
Format: cell-based, human
Details: Homo sapiens; breast cancer MDA-MB-231, 72 h, WST-1; Neg: negative in the concentration used; read-out: IC50 ± SD MDA-MB-231
Method: as §1, §2, §3

| Structure (SMILES) | IC50 |
| --- | --- |
| C#CCOC1=C(Cl)C(=O)c2ccc(C)nc2C1=O [Compound 12, 6-Chloro-2-methyl-7-(2-propynoxy)-5,8-quinolinedione] | 17.2 ± 2.5 µM |
| CCCOC1=C(OCCC)C(=O)c2ccccc2C1=O [Compound 13, 2,3-Dipropoxy-1,4-naphtoquinon] | 22.6 ± 2.3 µM |
| C=CCOC1=C(OCC=C)C(=O)c2ccccc2C1=O [Compound 14, 2,3-di(2-Propenoxy)-1,4-naphthoquinon] | 17.9 ± 0.8 µM |
| CCCOC1=C(OCCC)C(=O)c2nc(C)ccc2C1=O [Compound 19, 2-Methyl-6,7-dipropoxy-5,8-quinolinedione] | 71.3 ± 3.9 µM |
| C=CCOC1=C(OCC=C)C(=O)c2nc(C)ccc2C1=O [Compound 20, 2-Methyl-6,7-di(2-propenoxy)-5,8-quinolinedione] | 26.8 ± 1.2 µM |
| C#CCOC1=C(OCC#C)C(=O)c2nc(C)ccc2C1=O [Compound 21, 2-Methyl-6,7-di(2-propynoxy)-5,8-qunolinedione] | 23.2 ± 1.5 µM |
| O=C1C(Cl)=C(OCC#CC=CC#CCO)C(=O)c2ccccc21 [Compound 23, 2-Chloro-3-(8-hydroxy-4-octen-2,6-diynyloxy)-1,4-naphthoquinon] | 22.5 ± 2.4 µM |

Same assay, conditions: breast cancer MDA-MB-231, 72 h, WST-1; Neg: negative in the concentration used

| Structure (SMILES) | IC50 ± SD MDA-MB-231 |
| --- | --- |
| OCC#C/C=C\C#CCO [Compound 22, (Z)-oct-4-ene-2,6-diyne-1,8-diol] | Neg |

Same assay, conditions: selectivity index, HFF-1 vs MDA-MB-231

| Structure (SMILES) | SI (IC50 HFF-1/IC50 cancer line) MDA-MB-231 |
| --- | --- |
| C#CCOC1=C(Cl)C(=O)c2ccc(C)nc2C1=O [Compound 12, 6-Chloro-2-methyl-7-(2-propynoxy)-5,8-quinolinedione] | 0.81 |
| CCCOC1=C(OCCC)C(=O)c2ccccc2C1=O [Compound 13, 2,3-Dipropoxy-1,4-naphtoquinon] | 0.48 |
| C=CCOC1=C(OCC=C)C(=O)c2ccccc2C1=O [Compound 14, 2,3-di(2-Propenoxy)-1,4-naphthoquinon] | 0.25 |
| CCCOC1=C(OCCC)C(=O)c2nc(C)ccc2C1=O [Compound 19, 2-Methyl-6,7-dipropoxy-5,8-quinolinedione] | 0.25 |
| C=CCOC1=C(OCC=C)C(=O)c2nc(C)ccc2C1=O [Compound 20, 2-Methyl-6,7-di(2-propenoxy)-5,8-quinolinedione] | 0.02 |
| C#CCOC1=C(OCC#C)C(=O)c2nc(C)ccc2C1=O [Compound 21, 2-Methyl-6,7-di(2-propynoxy)-5,8-qunolinedione] | 0.63 |
| OCC#C/C=C\C#CCO [Compound 22, (Z)-oct-4-ene-2,6-diyne-1,8-diol] | 1.85 |
